Measurements as given in ChEMBL document CHEMBL1126333, “Conversion of NSAIDS into balanced dual inhibitors of cyclooxygenase and 5-lipoxygenase” (Bioorg Med Chem Lett, 1992).
pIC50: −log10 of the molar value.

Tests used:
Cyclooxygenase = molecular target: T1, Cyclooxygenase (Rattus norvegicus, UniProt P35355+Q63921); assay: In vitro inhibitory activity against Cyclooxygenase was determined; format: protein assay
T1 sequence (P35355 whole entry): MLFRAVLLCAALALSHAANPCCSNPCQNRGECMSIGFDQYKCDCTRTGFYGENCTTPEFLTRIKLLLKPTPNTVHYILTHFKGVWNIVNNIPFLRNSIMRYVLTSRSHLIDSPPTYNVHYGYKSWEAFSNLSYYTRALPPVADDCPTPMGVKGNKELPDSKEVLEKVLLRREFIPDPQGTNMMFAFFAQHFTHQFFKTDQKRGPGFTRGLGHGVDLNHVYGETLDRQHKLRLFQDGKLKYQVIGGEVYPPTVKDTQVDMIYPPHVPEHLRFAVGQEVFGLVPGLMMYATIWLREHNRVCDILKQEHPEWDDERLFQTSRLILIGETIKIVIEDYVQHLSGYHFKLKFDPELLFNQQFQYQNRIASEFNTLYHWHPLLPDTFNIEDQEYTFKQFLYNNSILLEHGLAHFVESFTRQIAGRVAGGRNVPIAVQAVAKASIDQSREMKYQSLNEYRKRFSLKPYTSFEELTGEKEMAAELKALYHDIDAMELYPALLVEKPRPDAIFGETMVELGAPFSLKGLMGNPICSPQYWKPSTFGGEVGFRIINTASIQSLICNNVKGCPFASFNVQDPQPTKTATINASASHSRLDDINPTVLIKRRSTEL
T1 sequence (Q63921 whole entry): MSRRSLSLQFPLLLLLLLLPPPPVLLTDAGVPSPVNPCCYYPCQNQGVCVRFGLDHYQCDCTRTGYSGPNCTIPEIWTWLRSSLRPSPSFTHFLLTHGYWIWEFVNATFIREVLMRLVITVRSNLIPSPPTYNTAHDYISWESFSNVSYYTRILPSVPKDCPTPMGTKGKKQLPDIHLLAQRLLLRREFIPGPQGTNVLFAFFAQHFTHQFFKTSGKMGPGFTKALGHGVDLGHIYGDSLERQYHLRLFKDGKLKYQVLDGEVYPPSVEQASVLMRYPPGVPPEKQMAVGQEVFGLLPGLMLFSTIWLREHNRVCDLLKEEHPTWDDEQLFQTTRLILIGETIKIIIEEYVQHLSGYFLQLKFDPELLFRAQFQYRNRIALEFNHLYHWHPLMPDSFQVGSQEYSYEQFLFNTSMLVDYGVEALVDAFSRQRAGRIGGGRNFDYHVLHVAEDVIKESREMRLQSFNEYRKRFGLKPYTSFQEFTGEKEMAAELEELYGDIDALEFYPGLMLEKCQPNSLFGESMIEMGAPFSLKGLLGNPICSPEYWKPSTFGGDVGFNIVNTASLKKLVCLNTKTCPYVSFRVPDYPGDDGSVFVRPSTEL

[1] = molecular target: T2, Polyunsaturated fatty acid 5-lipoxygenase (Rattus norvegicus) (UniProt P12527); assay: In vitro inhibitory activity against 5-lipoxygenase was determined at 16 uM
T2 sequence (whole entry): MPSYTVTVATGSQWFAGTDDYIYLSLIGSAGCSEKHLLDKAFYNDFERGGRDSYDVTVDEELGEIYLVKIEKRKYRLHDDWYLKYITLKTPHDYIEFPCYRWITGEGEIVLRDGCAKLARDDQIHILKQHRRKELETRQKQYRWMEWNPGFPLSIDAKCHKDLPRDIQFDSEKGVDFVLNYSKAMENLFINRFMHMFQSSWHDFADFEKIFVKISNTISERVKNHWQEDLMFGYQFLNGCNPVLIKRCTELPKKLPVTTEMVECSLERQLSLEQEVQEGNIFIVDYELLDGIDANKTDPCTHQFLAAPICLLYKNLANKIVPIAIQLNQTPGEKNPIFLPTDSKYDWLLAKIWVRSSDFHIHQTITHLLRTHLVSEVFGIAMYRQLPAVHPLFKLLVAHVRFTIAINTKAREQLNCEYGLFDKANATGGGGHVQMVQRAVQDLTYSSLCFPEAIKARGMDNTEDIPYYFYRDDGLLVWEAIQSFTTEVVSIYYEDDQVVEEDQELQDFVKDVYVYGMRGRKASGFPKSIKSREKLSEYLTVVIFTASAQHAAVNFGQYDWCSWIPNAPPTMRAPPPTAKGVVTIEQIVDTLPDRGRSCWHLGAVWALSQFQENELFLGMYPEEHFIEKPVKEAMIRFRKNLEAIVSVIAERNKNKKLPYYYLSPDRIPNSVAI

[2] = molecular target: Cyclooxygenase (Rattus norvegicus) (UniProt P35355+Q63921); assay: In vitro inhibitory activity against Cyclooxygenase was determined at 16 uM; format: protein assay
[3] = molecular target: T3, Polyunsaturated fatty acid 5-lipoxygenase (Rattus norvegicus, UniProt P12527); assay: In vitro inhibitory activity against 5-lipoxygenase was determined
T3 sequence (P12527 whole entry): T2 sequence (whole entry)

Cc1ccc(Cl)c(Nc2ccccc2-c2nnc(S)o2)c1Cl
IC50 (Cyclooxygenase): 700 nM

FC(F)(F)c1cccc(Nc2ccccc2-c2n[nH]c(=S)o2)c1
IC50 (Cyclooxygenase): 270 nM

Cc1ccc(Cl)c(Nc2ccccc2-c2nnc(S)s2)c1Cl
IC50 (Cyclooxygenase): 1750 nM

Oc1nnc(-c2ccccc2Nc2cccc(C(F)(F)F)c2)s1
inhibition [1]: 100%
inhibition [2]: < 40%

Cc1cccc(Nc2ccccc2-c2nnc(O)o2)c1C
inhibition [1]: < 40%
inhibition [2]: < 40%

FC(F)(F)c1cccc(Nc2ncccc2-c2nnc(S)o2)c1
pIC50 [3]: 6.00
IC50 (Cyclooxygenase): 190 nM

FC(F)(F)c1cccc(Nc2ccccc2-c2n[nH]c(=S)s2)c1
IC50 (Cyclooxygenase): 850 nM

Cc1ccc(Cl)c(Nc2ccccc2-c2nnc(O)o2)c1Cl
inhibition [1]: < 40%
inhibition [2]: < 40%
